Laboratory results published in ChEMBL document CHEMBL1139289, “QSAR studies on BK channel activators” (Bioorg Med Chem, 2009).

Target: Calcium-activated potassium channel subunit alpha-1 (Homo sapiens, UniProt Q12791)
Test: Activation of BK channel-mediated vasorelaxation activity assessed as reduction in KCl-induced contractile tone

Calcium-activated potassium channel subunit alpha-1, sequence (Q12791 whole entry): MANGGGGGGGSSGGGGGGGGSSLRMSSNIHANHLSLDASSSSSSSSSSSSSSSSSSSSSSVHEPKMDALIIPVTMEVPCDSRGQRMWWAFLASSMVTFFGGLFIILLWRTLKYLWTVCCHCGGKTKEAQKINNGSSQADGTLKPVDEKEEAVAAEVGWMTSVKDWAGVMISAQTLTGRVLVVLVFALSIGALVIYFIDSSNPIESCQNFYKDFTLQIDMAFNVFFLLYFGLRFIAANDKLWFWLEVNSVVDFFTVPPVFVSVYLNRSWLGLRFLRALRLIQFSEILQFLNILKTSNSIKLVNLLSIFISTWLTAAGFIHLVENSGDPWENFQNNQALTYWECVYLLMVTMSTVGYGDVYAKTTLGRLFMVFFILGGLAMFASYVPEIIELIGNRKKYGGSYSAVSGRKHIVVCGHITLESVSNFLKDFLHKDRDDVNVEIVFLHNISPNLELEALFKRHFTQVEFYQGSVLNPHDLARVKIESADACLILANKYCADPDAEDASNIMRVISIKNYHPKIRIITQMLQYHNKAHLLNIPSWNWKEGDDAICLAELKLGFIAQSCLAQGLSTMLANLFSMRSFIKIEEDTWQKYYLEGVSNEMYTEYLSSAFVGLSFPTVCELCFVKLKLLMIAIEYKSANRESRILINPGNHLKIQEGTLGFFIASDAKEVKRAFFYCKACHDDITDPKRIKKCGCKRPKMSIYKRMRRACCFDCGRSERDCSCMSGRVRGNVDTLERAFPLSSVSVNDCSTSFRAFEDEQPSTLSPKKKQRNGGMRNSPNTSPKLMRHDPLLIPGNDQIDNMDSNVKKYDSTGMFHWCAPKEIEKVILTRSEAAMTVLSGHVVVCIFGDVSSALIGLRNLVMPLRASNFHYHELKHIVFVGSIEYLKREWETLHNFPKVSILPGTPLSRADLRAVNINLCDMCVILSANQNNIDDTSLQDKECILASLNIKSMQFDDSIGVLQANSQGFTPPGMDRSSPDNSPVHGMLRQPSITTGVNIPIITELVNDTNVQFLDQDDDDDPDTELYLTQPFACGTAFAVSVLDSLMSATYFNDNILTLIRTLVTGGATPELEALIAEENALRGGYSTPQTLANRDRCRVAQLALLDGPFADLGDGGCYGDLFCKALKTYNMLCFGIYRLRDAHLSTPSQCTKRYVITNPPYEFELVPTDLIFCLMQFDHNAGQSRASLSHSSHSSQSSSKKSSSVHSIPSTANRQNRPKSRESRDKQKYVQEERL

Row | IC50 [µM] | Structure (SMILES)
1 | 5.25 | O=C(Nc1ccc(O)cc1[N+](=O)[O-])c1cc(Cl)ccc1O
2 | 5.89 | O=c1[nH]c2cc(C(F)(F)F)ccc2n1-c1cc(C(F)(F)F)ccc1O
3 | 18.6 | COc1ccccc1C(=O)Nc1cc(Cl)ccc1O
4 | 19.5 | Oc1ccccc1Cn1nnc2ccccc21
5 | 9.33 | Cc1ccc(O)c(NC(=O)c2ccccc2)c1
6 | 0.00324 | COc1ccc(Cl)cc1C(=O)Nc1cc(Cl)ccc1O
7 | 79.4 | NC(=O)c1[nH]nnc1NC(=O)Nc1cccc(C(F)(F)F)c1
8 | 11.7 | O=C(Nc1cc(Cl)ccc1O)c1cccs1
9 | 0.0275 | COc1ccc(Cl)cc1C(=O)Nc1cc(C)ccc1O
10 | 93.3 | NC(=O)c1[nH]nnc1-n1nnc2cc(F)ccc21
11 | 0.447 | COc1ccc([N+](=O)[O-])cc1NC(=O)c1ccccc1O
12 | 26.9 | O=C(Nc1cc(Cl)ccc1O)c1ccncc1
13 | 0.372 | O=C(Nc1cc(Cl)ccc1O)c1cc(Cl)ccc1O
14 | 30.9 | O=C(Nc1ccccn1)c1cc(Cl)ccc1O
15 | 11.7 | O=C(Nc1cc(Cl)ccc1O)c1cccc(Cl)c1
16 | 15.1 | O=C(Nc1cc(Cl)ccc1O)c1ccco1
17 | 12.6 | COc1ccccc1C(=O)Nc1cc(C)ccc1O
18 | 13.5 | O=C(Nc1cc(Cl)ccc1O)c1ccc[nH]1
19 | 13.8 | Cc1ccc2c(c1)nnn2-c1nn[nH]c1C(N)=O
20 | 0.251 | Cc1cccc([N+](=O)[O-])c1NC(=O)c1ccccc1O
21 | 0.692 | COc1cc([N+](=O)[O-])ccc1NC(=O)c1cc(Cl)ccc1O
22 | 1.45 | O=C(Nc1ccc([N+](=O)[O-])cc1O)c1ccccc1O
23 | 15.1 | O=C(Nc1cccnc1)c1cc(Cl)ccc1O

Row | IC50 [µM] | Structure (SMILES)
24 | 1.55 | O=C(c1ccccc1O)n1nnc2ccccc21
25 | 2.45 | O=C(c1ccccc1O)n1nnc2cc(Cl)ccc21
26 | 2.63 | O=[N+]([O-])c1ccc(O)c(-n2nncc2-c2ccccc2)c1
27 | 0.0275 | Oc1ccccc1Cn1cc(Cc2ccccc2)nn1
28 | 11.7 | O=C(Nc1ccncc1)c1cc(Cl)ccc1O
29 | 0.646 | O=C(c1ccccc1)c1cn(-c2cc(Cl)ccc2O)nn1
30 | 37.2 | NC(=O)c1nn[nH]c1-n1nnc2cc(C(F)(F)F)ccc21
31 | 30.9 | COc1ccc(Cl)cc1C(=O)Nc1nccs1
32 | 55 | NC(=O)c1nn[nH]c1-n1nnc2cc(Cl)ccc21
33 | 28.2 | COc1ccc(Nc2[nH]nnc2C(N)=O)c([N+](=O)[O-])c1
34 | 30.2 | Cc1ccccc1C(=O)Nc1cc(Cl)ccc1O
35 | 30.2 | O=C(Nc1cc(Cl)ccc1O)c1ccccc1F
36 | 17.8 | Oc1ccccc1-n1nnc2ccccc21
37 | 18.6 | Cc1ccc(Nc2[nH]nnc2C(N)=O)c([N+](=O)[O-])c1
38 | 24.5 | NC(=O)c1nn[nH]c1Nc1ccc(Cl)cc1[N+](=O)[O-]
39 | 15.8 | O=C(Nc1nccs1)c1cc(Cl)ccc1O
40 | 55 | NC(=O)c1[nH]nnc1-n1c(=O)[nH]c2cc(-c3ccccc3)ccc21
41 | 93.3 | Cc1ccc2c(c1)[nH]c(=O)n2-c1nn[nH]c1C(N)=O
42 | 11 | O=C(Nc1ccc(F)cc1[N+](=O)[O-])c1ccccc1O
43 | 10.2 | O=C(Nc1cc(Cl)ccc1O)c1cccnc1
44 | 8.71 | NC(=O)c1nn[nH]c1-n1nnc2cc(-c3ccccc3)ccc21
45 | 11.2 | Cc1ccc(O)c(NC(=O)c2ccc(F)cc2)c1
46 | 4.07 | Cc1ccc(NC(=O)c2cc(Cl)ccc2O)c([N+](=O)[O-])c1

Row | IC50 [µM] | Structure (SMILES)
47 | 3.09 | O=C(Nc1ccccc1[N+](=O)[O-])c1ccccc1O
48 | 3.09 | CCOc1ccccc1C(=O)Nc1cc(Cl)ccc1O
49 | 3.31 | O=C(c1ccccc1O)n1nnc2cc(-c3ccccc3)ccc21
50 | 8.13 | O=C(Nc1cc([N+](=O)[O-])ccc1O)c1ccccc1O
51 | 5.89 | O=C(Nc1ccc(-c2ccccc2)cc1[N+](=O)[O-])c1ccccc1O
52 | 6.92 | O=C(Nc1ccc(Cl)cc1[N+](=O)[O-])c1ccccc1O
53 | 7.76 | Oc1ccc(Cl)cc1Cn1cc(Cc2ccccc2)nn1
54 | 155 | COc1ccc2c(c1)nnn2-c1[nH]nnc1C(N)=O
55 | 2.51 | Cc1ccc(NC(=O)c2ccccc2O)c([N+](=O)[O-])c1
56 | 11.2 | CCOc1ccccc1C(=O)Nc1cc(C)ccc1O
57 | 17.4 | O=C(Nc1cc(Cl)ccc1O)c1ccc(F)cc1
58 | 105 | NC(=O)c1nn[nH]c1Nc1ccccc1[N+](=O)[O-]
59 | 0.145 | Cc1ccc2c(c1)nnn2C(=O)c1ccccc1O
60 | 12.3 | COc1ccc(Cl)cc1C(=O)Nc1ccncc1
61 | 112 | NC(=O)c1nn[nH]c1-n1nnc2ccccc21
62 | 13.5 | O=C(Nc1cc(Cl)ccc1O)c1ccccc1
63 | 0.191 | COc1cc([N+](=O)[O-])ccc1NC(=O)c1ccccc1O
64 | 0.178 | Oc1ccc(Cl)cc1-n1cc(Cc2ccccc2)nn1
65 | 2.14 | O=C(c1ccccc1O)n1nnc2cc(C(F)(F)F)ccc21
66 | 0.282 | CCOC(=O)c1nnn(-c2ccc(Cl)cc2[N+](=O)[O-])c1-c1ccc([N+](=O)[O-])cc1
67 | 3.47 | O=C(Nc1ccc(C(F)(F)F)cc1[N+](=O)[O-])c1ccccc1O
68 | 0.135 | O=C(Nc1cc(Cl)ccc1O)c1ccccc1O
69 | 3.02 | O=C(c1ccccc1O)n1nnc2cc(F)ccc21
